Test results: PMC7849180 (Frontiers in Pharmacology, 2020)
pIC50: −log10 of the molar value.

Assays:
JAK2 = JAK2 (Homo sapiens, UniProt O60674); test: Phosphorylation of STAT3 by JAK2; type: biochemical
Description: (§1) Suzhou Zelgen Biopharmaceuticals Co., Ltd. Jaktinib Hydrochloride Tablets Chemical Drug Class 1 New Drug has been completed. The ongoing toxicity tests include a long-term 39-week toxicity test in Beagle dogs by oral administration, a reproductive toxicity test in rats during the teratogenic sensitive period, and a reproductive toxicity test in rabbits during the teratogenic sensitive period.
(§2) Preclinical Pharmacodynamic Study
(§3) Study on the in vitro Pharmacodynamic Effects of ZG0163 at the […]
(§4) In this study, the effects of ZG0163 was similar to those of positive control compounds, ZG0164 and ZG0178.
(§5) Study on the in vitro Pharmacodynamic Effects of ZG0163 at the Cellular Level (Ba/F3-EpoR-JAK2V617F cells)
(§6) JAK2V617F cell line, the compound ZG0163 was able to induce apoptosis of pathogenic cells and eliminate abnormal cell proliferation by inhibiting the JAK-STAT signaling pathway, thus achieving treatment efficacy in myeloproliferative neoplasms. […]
(§7) cell line, manifested as significant inhibition of phosphorylation of JAK2 and its downstream signaling proteins ERK and STAT5. The effects of ZG0163 was similar to those of positive control compounds, ZG0164 and ZG0178.
(§8) EpoR-JAK2V617F, which was similar to those of positive control compounds, ZG0164

Ba/F3-EpoR cell line = test: Cell activity of Ba/F3-EpoR cell line; type: cell-based; conditions: read-out: IC50, inhibition of cell activity
Description: Suzhou Zelgen Biopharmaceuticals Co., Ltd. Jaktinib Hydrochloride Tablets Chemical Drug Class 1 New Drug and ZG0178. However, the inhibitory effect on the activity of Ba/F3-EpoR cell line […]
respectively. Obviously, this selective inhibition is associated with the aberrant expression of JAK2 in Ba/F3-EpoR-JAK2V617F mutant cells, and the degree of ZG0163 inhibition on JAK-STAT signaling pathway in this cell line. […]
cells, and the effects of ZG0163 was similar to those of positive control compounds, […]
In Vitro Inhibitory Effect of ZG0128 on Cell Lines Transfected with Oncogenes and Primary Blood Cells in Patients with Polycythemia Vera
In vitro cell culture assay was used to determine whether compound ZG0128 […]
cell line harboring a JAK2V617F mutation, and 8 HCD-57 cell lines stably transfected with oncogenic mutations JAK2V617F, MPLW515L, KITD816V, NPM-ALK, FLT3-ITD, FLT3D835H, FLT3D835Y and KRasG12V, respectively. In addition, study the inhibitory effects of compound ZG0128 on the growth of hematopoietic progenitor cells in patients with polycythemia vera.
9 cell lines were similar to those of positive control drug ZG0192. At the sub-micromolar concentration, both compounds ZG0128 and ZG0192 were able to […]
the growth of HCD-57 cells transfected with oncogenic mutations JAK2V617F, […]
spectrum inhibitory effect on tyrosine kinases. […]

[1] = Treatment-related AEs (NCI CTCAE), SAD cohorts; type: in vivo, human
Procedure: In SAD part, volunteers were designed into eight SAD cohorts (25, 50, 100, 150, 200, 250, 300 and 400 mg). Among these cohorts, 25 mg was bisected by the 50 mg specification under good manufacturing practices (GMP) condition and provided the certificate of analysis. […] Jaktinib or placebo was administrated after an overnight fast.
Dose-limiting toxicities (DLTs) were defined according to the NCI CTCAE v.4.03 as any occurrence of the following drug-related adverse events (AEs): more than one third of volunteers suffered Grade ≥4 drug-related hematological toxicities or Grade ≥3 drug-related nonhematological toxicities; one drug-related serious adverse events (SAEs).

JNK = test: Phosphorylation of c-Jun by JNK; type: biochemical
Description: as §1, §2, §3, §4, §5, §6, §7, §8

[2] = Accumulated excretion recovery in urine and feces; type: in vivo, human; conditions: 200 mg jaktinib fasted
Procedure: For MAD cohorts, blood samples were collected at 0, 0.25, 0.5, 1, 1.5, 2, 3, 4, 5, 6, 8 and 12 h on day 1; 0 h on day 2, 3, 4, 6 and 7; 0, 0.25, 0.5, 1, 1.5, 2, 3, 4, 5, 6, 8, 12, 24, 36 and 48 h on day 10. In food effect cohort, blood samples were collected at 0, 0.25, 0.5, 1, 1.5, 2, 3, 4, 5, 6, 8, 12, 24, 36, 48, 72, 96 and 120 h in period one of group A; 0, 0.25, 0.5, 1, 1.5, 2, 3, 4, 5, 6, 8, 12, 24, 36 and 48 h in period two of group A and the two periods of group B. Blood samples were centrifuged at 3,000 rpm for 10 min at 2–8 °C and stored at -80 °C until liquid chromatography-mass spectrophotometry (LC-MS/MS) analysis. Urine and feces samples were collected in period one of group A of food effect cohort with the intervals 0, 0–6, 6–12, 12–24, 24–48, 48–72, 72–96, 96–120 and 0–120 h, respectively.
Urine and feces PK parameter was accumulated excretion recovery ratio from time zero to 120 h (Fe0–120h).

[3] = all SAD volunteers who received jaktinib

JAK2, sequence (O60674 whole entry): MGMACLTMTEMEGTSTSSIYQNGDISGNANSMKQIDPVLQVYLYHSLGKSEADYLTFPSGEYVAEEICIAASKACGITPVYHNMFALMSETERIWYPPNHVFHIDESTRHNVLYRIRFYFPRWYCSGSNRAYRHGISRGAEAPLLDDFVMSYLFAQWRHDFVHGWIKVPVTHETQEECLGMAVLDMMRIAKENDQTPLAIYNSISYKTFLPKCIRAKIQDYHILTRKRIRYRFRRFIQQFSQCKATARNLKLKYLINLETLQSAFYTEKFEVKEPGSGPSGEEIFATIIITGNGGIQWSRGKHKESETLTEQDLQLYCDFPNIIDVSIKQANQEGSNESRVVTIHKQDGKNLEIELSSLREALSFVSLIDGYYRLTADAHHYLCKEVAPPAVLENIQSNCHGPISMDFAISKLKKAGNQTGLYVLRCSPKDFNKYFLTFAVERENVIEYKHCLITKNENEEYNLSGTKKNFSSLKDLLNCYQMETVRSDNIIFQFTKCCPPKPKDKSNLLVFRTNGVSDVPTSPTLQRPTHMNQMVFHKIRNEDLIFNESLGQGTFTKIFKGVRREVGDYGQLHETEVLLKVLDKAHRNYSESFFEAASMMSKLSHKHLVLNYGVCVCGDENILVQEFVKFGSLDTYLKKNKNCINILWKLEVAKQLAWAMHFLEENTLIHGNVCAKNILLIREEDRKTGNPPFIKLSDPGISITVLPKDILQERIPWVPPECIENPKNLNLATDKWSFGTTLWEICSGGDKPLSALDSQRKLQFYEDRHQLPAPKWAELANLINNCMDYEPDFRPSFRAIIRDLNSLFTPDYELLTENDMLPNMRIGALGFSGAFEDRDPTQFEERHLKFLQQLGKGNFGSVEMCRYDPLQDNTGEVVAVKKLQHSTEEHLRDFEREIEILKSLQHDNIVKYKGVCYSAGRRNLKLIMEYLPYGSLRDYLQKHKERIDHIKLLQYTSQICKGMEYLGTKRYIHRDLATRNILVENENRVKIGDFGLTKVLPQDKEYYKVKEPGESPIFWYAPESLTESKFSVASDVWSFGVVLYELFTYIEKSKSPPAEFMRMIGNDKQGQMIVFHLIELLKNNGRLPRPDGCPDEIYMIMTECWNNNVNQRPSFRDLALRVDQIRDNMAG

For Jaktinib, the pIC50 (JAK2) was roughly 7.00, the pIC50 (Ba/F3-EpoR cell line) was 5.82 and the Elevated serum creatinine ([1]; 25 mg, Grade 1–2) was 1 (16.7) n (%). For the same substance, the Hematuria ([1]; 100 mg, Grade 1–2) was 1 (16.7) n (%), the Fecal leukocytosis ([1]; 150 mg, Grade 1–2) was 1 (16.7) n (%) and the Hyperglycemia ([1]; 150 mg, Grade 1–2) was 1 (16.7) n (%). For the same substance, the Mucous stool ([1]; 150 mg, Grade 1–2) was 1 (16.7) n (%), the “Positive fecal occult blood” value ([1]; 150 mg, Grade 1–2) was 1 (16.7) n (%) and the Upper abdominal pain ([1]; 150 mg, Grade 1–2) was 1 (16.7) n (%). The Urinary sediment positive ([1]; 150 mg, Grade 1–2) was 1 (16.7) n (%), the Urine erythrocyte positive ([1]; 150 mg, Grade 1–2) was 3 (50.0) n (%) and the Urine leukocyte positive ([1]; 150 mg, Grade 1–2) was 2 (33.3) n (%). The Nausea ([1]; 200 mg, Grade 1–2) was 1 (16.7) n (%), the Urine erythrocyte positive ([1]; 200 mg, Grade 1–2) was 1 (16.7) n (%) and the Fever ([1]; 250 mg, Grade 1–2) was 1 (16.7) n (%). For the same substance, the Headache ([1]; 250 mg, Grade 1–2) was 1 (16.7) n (%), the Varicella ([1]; 250 mg, Grade 3) was 1 (16.7) n (%) and the Dizziness ([1]; 300 mg, Grade 1–2) was 1 (16.7) n (%). For the same substance, the Fever ([1]; 300 mg, Grade 1–2) was 1 (16.7) n (%), the Headache ([1]; 300 mg, Grade 1–2) was 4 (66.7) n (%) and the Lymphocytopenia ([1]; 300 mg, Grade 1–2) was 1 (16.7) n (%). For the same substance, the Neutrophilic granulocytosis ([1]; 300 mg, Grade 1–2) was 1 (16.7) n (%), the Anemia ([1]; 400 mg, Grade 1–2) was 1 (16.7) n (%) and the “volunteers with treatment-related AEs” value ([1]; all SAD cohorts) was 28.1%. The Headache incidence [1, 3] was 10.4%, the “positive urine erythrocyte incidence” value [1, 3] was 8.3% and the “effect on phosphorylation of c-Jun by JNK” value (JNK) was “no significant effects”. For the same substance, the “Fe0–120h in urine and feces, total of jaktinib and metabolites” value [2] was 19.478%, the “Feces-Fe0–120h, total of jaktinib and metabolites” value [2] was 15.350% and the “Urine-Fe0–120h, total of jaktinib and metabolites” value [2] was 4.128%. The “Feces-Fe0–120h, geometric mean” value ([2]; n = 6) was 12.681%, the “Total Fe0–120h (urine and feces)” value ([2]; n = 6) was 12.813% and the “Urine-Fe0–120h, geometric mean” value ([2]; n = 6) was 0.132%.
